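96-well plates; 48 h exposure; 5 concentrations. Endpoints by linear interpolation between flanking doses. Not reached: highest tested concentration assigned. At the TGI there is no net growth.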
Columns and labels:
Assay in all cases: NCI anticancer screen, dose series, 48 h
[1] = tested on: 786-0 renal
[2] = tested on: A549 NSCLC
[3] = tested on: ACHN renal
[4] = tested on: CAKI-1 renal
[5] = tested on: CCRF-CEM leukemia
[6] = tested on: COLO 205 colon
[7] = tested on: DLD-1 colon
[8] = tested on: DMS 114 small cell lung
[9] = tested on: DMS 273 small cell lung
[10] = tested on: EKVX NSCLC
[11] = tested on: HCC-2998 colon
[12] = tested on: HCT-116 colon
[13] = tested on: HCT-15 colon
[14] = tested on: HOP-18 NSCLC
[15] = tested on: HOP-62 NSCLC
[16] = tested on: HT29 colon
[17] = tested on: IGROV1 ovarian
[18] = tested on: K-562 leukemia
[19] = tested on: KM20L2 colon
[20] = tested on: LOX IMVI melanoma
[21] = tested on: LXFL 529 NSCLC
[22] = tested on: M14 melanoma
[23] = tested on: M19-MEL melanoma
[24] = tested on: MALME-3M melanoma
[25] = tested on: MOLT-4 leukemia
[26] = tested on: NCI-H226 lung
[27] = tested on: NCI-H23 lung
[28] = tested on: NCI-H460 lung
[29] = tested on: NCI-H522 lung
[30] = tested on: OVCAR-3 ovarian
[31] = tested on: OVCAR-4 ovarian
[32] = tested on: OVCAR-5 ovarian
[33] = tested on: OVCAR-8 ovarian
[34] = tested on: RPMI-8226 leukemia
[35] = tested on: RXF 393 renal
[36] = tested on: SF-268 CNS
[37] = tested on: SF-295 CNS
[38] = tested on: SF-539 CNS
[39] = tested on: SK-MEL-2 melanoma
[40] = tested on: SK-MEL-28 melanoma
[41] = tested on: SK-MEL-5 melanoma
[42] = tested on: SK-OV-3 ovarian
[43] = tested on: SN12C renal
[44] = tested on: SNB-19 CNS
[45] = tested on: SNB-75 CNS
[46] = tested on: SNB-78 CNS
[47] = tested on: SW-620 colon
[48] = tested on: TK-10 renal
[49] = tested on: U251 CNS
[50] = tested on: UACC-257 melanoma
[51] = tested on: UACC-62 melanoma
[52] = tested on: UO-31 renal
[53] = tested on: XF 498 CNS
[54] = tested on: HL-60(TB) leukemia
[55] = tested on: KM12 colon

Measured: TGI

O=C(O)[C@@H](NS(=O)(=O)c1ccc(F)cc1)c1ccccc1
not listed: [54] | [55]
> 100 µM: all other assays above

COC(=O)/C(C#N)=C1\CCC(OC)N1 (stereo not drawn)
> 100 µM: all assays above

Reference: PubChem BioAssay (NCI)
